According to patent publication US10203334B2, “Methods and compositions related to nucleic acid binding assays” (Nubad, LLC, priority 2012, dated 2019):

Tests used:
d(CCCCGGGG)2 = test: Fluorescein-neomycin fluorescence quenching by DNA duplex; type: binding; details: 1 μM probe, 10 mM SC, 0.5 mM EDTA, pH 6.8
Procedure: (§1) It has been shown that the fluorescence of a fluorescein-neomycin is quenched when bound to a nucleic acid target. In continued efforts to expand the applications of the fluorescein-neomycin conjugate, a fluorescence quenching study was performed to determine if the quenching of fluorescein-neomycin in the presence of DNA is representative of the neomycin affinity. Previous studies using the duplexes d(GGGGCCCC)2 and d(CCCCGGGG)2 have shown the binding is lower for d(CCCCGGGG)2. This has been shown from the ITC derived binding constants, FID studies, and electrostatic potential studies. […] For this reason the fluorescence quenching of fluorescein-neomycin with d(GGGGCCCC)2 and d(CCCCGGGG)2 was performed at three different buffer salt concentrations. […] Results from this study show here that the fluorescein-neomycin quenching can be applied to screening the 256 GC rich hairpins to identify which sequence neomycin has the highest affinity. Table 2 represents the change in fluorescence (%) values of fluorescein-neomycin with 1rdr d(GGGGCCCC)2 and d(CCCCGGGG)2 in 3 different buffer salt concentrations and the ratio between the change in fluorescence (%) values of F-neo with d(CCCCGGGG)2 compared to d(GGGGCCCC)2. Fluorescein-neomycin=1 μM, Buffer=10 mM SC, 0.5 mM EDTA, and either 50 mM NaCl, 100 mM NaCl, or 150 mM NaCl (pH=6.8). Experiment was performed in triplicate and the results were also polted in FIG. 10 showing the change in fluorescence (%) of fluorescein-neomycin with 1 equivalent d(GGGGCCCC)2 and d(CCCCGGGG)2 in 3 different buffer salt concentrations.

d(GGGGCCCC)2 = test: as above; type: binding; details: 1 μM probe, 10 mM SC, 0.5 mM EDTA, pH 6.8
Procedure: as §1

[1] = system: E. coli ribosomal A-site (SEQ ID No. 1); test: Quenching of F-neo by ribosomal A-site mimics, 96-well; type: binding; details: 0.1 μM RNA to 0.1 μM F-neo (42a); em 535 nm, ex 485 nm; ten wells averaged
Procedure: (§2) Disclosed is an HTS showing the difference in the binding affinity of fluorescene-neomycin (F-neo (42a)) to various synthetic RNA sequence 27 bases long designed to mimic the ribosomal A-site using a 96 well plate format and a fluorescent plate reader. Differences in binding are determined by the differential quenching of F-neo (42a) upon binding to the RNA.
(§3) Following the SOP's established for F-neo (42a) binding to E. coli A-site, each sequence was added at 0.1 μM RNA to 0.1 μM F-neo (42a) using 100 reads/well using a Tecan Genios Pro plate reader in a 96 well Greiner black plate. The emission was measured at wavelength 535 nm, using an excitation wavelength of 485 nm. All experiments were performed in 10 mM hepes (7.0), 50 mM NaCl, and 0.4 mM EDTA.

[2] = system: human ribosomal A-site (SEQ ID NO. 2); test: as above; type: binding; details: 0.1 μM RNA to 0.1 μM F-neo (42a); em 535 nm, ex 485 nm; ten wells averaged
Procedure: as §2, §3

[3] = system: mitochondria ribosomal A-site (SEQ ID NO. 3); test: as above; type: binding; details: 0.1 μM RNA to 0.1 μM F-neo (42a); em 535 nm, ex 485 nm; ten wells averaged
Procedure: as §2, §3

[4] = system: mutant mitochondria ribosomal A-site (SEQ ID NO. 4); test: as above; type: binding; details: 0.1 μM RNA to 0.1 μM F-neo (42a); em 535 nm, ex 485 nm; ten wells averaged
Procedure: as §2, §3

[5] = system: 16S A-site rRNA (SEQ ID No. 1); test: Competition dialysis; type: binding, E. coli; details: 100 nM ligand, 72 h dialysis, pH 7.0
Excerpt: (§4) Disclosed is the use of fluorescent aminosugar probes such as F-neo (42a) to probe a variety of nucleic acid targets. Competition dialysis was used as a nucleic acid screening technique to illustrate the binding of F-neo (42a) to different nucleic acid structures.
(§5) Competition dialysis studies using a fluorescein-neomycin conjugate (F-neo (42a)). […] Comparative binding of F-neo (42a) to 13 different nucleic acid structures was examined which included single strand nucleic acids [poly(dT), poly(A), poly(U)], duplexes [poly(dA).poly(dT), poly(rA).poly(dT), poly(rA).poly(rU), poly(dA).poly(rU), poly(dG).poly(dC), calf thymus], triplexes [poly(dA).2poly(dT), poly(rA).2poly(rU)], i-motif (polydC) and 16S A-site rRNA (SEQ ID No. 1). The amount of F-neo (42a) bound to each nucleic acid is shown as a bar graph in FIG. 13. Because all nucleic acids are dialyzed simultaneously in the same ligand solution, the amount of bound F-neo (42a) is directly proportional to its affinity for each nucleic acid. […] 200 μL of different nucleic acids (7.5 μM per monomeric unit of each polymer) was dialyzed for 72 h with 400 mL 100 nM ligand in 6 mM Na2HPO4, 2 mM NaH2PO4, 1 mM Na2EDTA, pH 7.0 and various Na+ concentrations as indicated.
(§6) F-neo (42a) prefers to bind to 16S A-site rRNA yielding a bound ligand concentration of 85 nM in 100 mM Na^+, 50 nM in 150 mM Na^+, and 15 nM in 200 mM Na^+ is shown in FIG. 15.

[6] = system: DNA triplex poly(dA).2poly(dT); test: Competition dialysis; type: binding
Excerpt: as §4, §5
F-neo (42a) prefers to bind to 16S A-site rRNA yielding a bound ligand concentration of 85 nM in 100 mM Na^+, 50 nM in 150 mM Na^+, and 15 nM in 200 mM Na^+ is shown in FIG. 15. […]

[7] = system: DNA duplex poly(dA).poly(dT), hybrid duplex poly(rA).poly(dT), calf thymus DNA, i-motif DNA, and all single-stranded nucleic acids; test: Competition dialysis; type: binding
Excerpt: as §4, §5, §6

[8] = system: RNA duplex poly(rA).poly(rU); test: Competition dialysis; type: binding; details: under these salt conditions (100-200 mM Na^+)
Excerpt: as §4, §5, §6

[9] = system: RNA triplex poly(rA).2poly(rU); test: Competition dialysis; type: binding
Excerpt: as §4, §5, §6

[10] = system: hybrid duplex poly(dA).poly(rU); test: Competition dialysis; type: binding; details: under these salt conditions (100-200 mM Na^+)
Excerpt: as §4, §5, §6

[11] = 50 mM NaCl, listed as Fluorescein-neomycin
[12] = 50 mM NaCl, listed as fluorescein-neomycin
[13] = 150 mM NaCl, listed as Fluorescein-neomycin
[14] = 150 mM NaCl, listed as fluorescein-neomycin

For `NCC1O[C@H](OC2C(O)C(OC3C(O)[C@H](N)CC(N)[C@H]3O[C@H]3OC(CN)[C@@H](O)C(O)C3N)O[C@@H]2CSCCNC(=O)CCSCC(=O)Nc2ccc(-c3c4ccc(=O)cc-4oc4cc(O)ccc34)c(C(=O)O)c2)C(N)C(O)[C@@H]1O` (stereo partly shown) [F-neo (42a), Neomycin-Fluorescein Conjugate], the “ΔF (%) with 1rdr d(CCCCGGGG)2” value (d(CCCCGGGG)2; [11]) was 47.75 ± 5.60%, the “ΔF (%) with 1rdr d(CCCCGGGG)2” value (d(CCCCGGGG)2; [12]) was 47% and the “ΔF (%) with 1rdr d(CCCCGGGG)2” value (d(CCCCGGGG)2; 100 mM NaCl) was 32.18 ± 0.42%. For the same molecule, the “ΔF (%) with 1rdr d(CCCCGGGG)2” value (d(CCCCGGGG)2; [13]) was 20.36 ± 2.76%, the “ΔF (%) with 1rdr d(CCCCGGGG)2” value (d(CCCCGGGG)2; [14]) was 20% and the “ΔF (%) with 1rdr d(GGGGCCCC)2” value (d(GGGGCCCC)2; [11]) was 73.97 ± 5.78%. The “ΔF (%) with 1rdr d(GGGGCCCC)2” value (d(GGGGCCCC)2; [12]) was 73%, the “ΔF (%) with 1rdr d(GGGGCCCC)2” value (d(GGGGCCCC)2; 100 mM NaCl) was 49.28 ± 1.12% and the “ΔF (%) with 1rdr d(GGGGCCCC)2” value (d(GGGGCCCC)2; [13]) was 33.88 ± 3.33%. For the same molecule, the “ΔF (%) with 1rdr d(GGGGCCCC)2” value (d(GGGGCCCC)2; [14]) was 33%, the “fluorescence of F-neo with RNA” value [1] was 7963 (±221) and the “fluorescence of F-neo with RNA” value [2] was 9503 (±208). The “fluorescence of F-neo with RNA” value [3] was 11987 (±445), the “fluorescence of F-neo with RNA” value [4] was 8515 (±230) and the bound ligand concentration ([5]; 100 mM Na^+) was 85 nM. For the same molecule, the bound ligand concentration ([5]; 150 mM Na^+) was 50 nM, the bound ligand concentration ([5]; 200 mM Na^+) was 15 nM and the “binding to poly(dA).2poly(dT)” value ([6]; 100 mM Na^+, ambient temperature (˜22° C.), triplex not formed) was “absence of F-neo (42a) binding”. For the same molecule, the bound drug ([6]; under these salt conditions (100-200 mM Na^+)) was 10 to 20 nM, the “binding in competition dialysis” value [7] was “moderate to very weak binding” and the bound drug [8] was 10 to 20 nM. The “bound F-neo (42a)” value ([9]; 100 mM Na^+) was 60 nM, the “bound F-neo (42a)” value ([9]; 150 mM Na^+) was 20 nM and the “bound F-neo (42a)” value ([9]; 200 mM Na^+) was 5 nM. It also gave a bound drug [10] of 10 to 20 nM.
